The format of data set [1] is in vitro ADME, mouse. The following applies: mouse; for Mouse Heps Cl: hepatocytes.
A further data set deals with HepG2 cells. The experiment in a line: HepG2 cytotoxicity. The settings on record: Homo sapiens, HepG2, read-out: HepG2 inhibitory concentration (IC50).
The format of data set [2] is in vitro ADME, mouse. The following applies: for Microsomal Cli: CD1, mouse; for Mouse micro Cl: microsomes.
The nature of data set [3]: physchem. The following applies: pH 7.4.
Data set [4] in a line: physchem. Format: physicochemical.
The next data set deals with M. tuberculosis (H37Rv). Kind of data set: microbe, parasite or virus in culture. The settings on record: for MIC: Mycobacterium tuberculosis, H37RV. In kind it is cell-based, Mycobacterium tuberculosis.
The test system of data set [5] is M. tuberculosis H37Rv. Format: in vivo. The settings on record: C57BL/6J mice, oral dosing for 8 days from day 1 post-infection, qPCR. A general note: Quantitative PCR measures a nucleic acid by following its amplification.
The conditions of data set [6]: mouse, in vivo.
The next data set is described as follows: in vivo. The following applies: C57BL/6J, mouse, po.
Data set [7] concerns M. tuberculosis H37Rv. Format: cell-based, Mycobacterium tuberculosis.
For data set [8] the following is noted: efficacy experiment at 20 times the oral PK dose.
A further data set is described as follows: in vitro. The settings on record: plasma.
The conditions of data set [9]: human liver microsomes. (Microsomes from liver hold many membrane-bound enzymes, among them those of drug oxidation.)
Data set [10] has as its system H37Rv growing inside J774 macrophages. Kind of data set: Intramacrophage efficacy. The settings on record: 7 days of treatment. In kind it is cell-based, Mycobacterium tuberculosis.
The subject of data set [11] is mycolic acid biosynthesis. The following applies: with accumulation of mycolic acid precursors; cited from earlier work.
Where [12] appears, read: pH 7.4, aqueous buffer, kinetic from dmso stock.
Setting [13] is: read-out: Wk2_7H9/DPPC/ casitone/ Tyloxapol MIC.
Setting [14] is: read-out: Wk2_ 7H9/DPPC/ cholesterol/BSA/ Tyloxapol MIC.
Setting [15] is: read-out: Wk2_7H9/glucose/ BSA/Tyloxapol MIC.
The mark [16] stands for this setting: read-out: Wk2_7H9/glucose/ casitone/ Tyloxapol MIC.

Values after ≈ are worked out from the molar mass of the structure shown. Where two headings read alike, the source gives them in different places.

Description for HepG2 cells: Assays to establish HepG2 cytotoxicity, in vitro microsomal/hepatocyte metabolic stability, aqueous kinetic solubility, and in vivo pharmacokinetic profiles were all performed as previously described.[15],[35]−[37]

Usually chromatographic logD stands for lipophilicity estimated from chromatographic retention. Read a low chromatographic logD as lower lipophilicity. Turning to `Cc1nc(C(=O)N(C)C)c(NC(=O)c2c(F)c(F)c(F)c(F)c2F)o1` [Compound 40, CN(C)C(=O)c1nc(oc1NC(=O)c1c(c(c(c(c1F)F)F)F)F)C], in data set [1], the “Hepatocyte Cli” value amounted to 7.3 mL/min/g. Moreover, the “Mouse Heps Cl” value in [1] is on record as 7.3 mL/min/g. Besides, in the data set with HepG2 cells, the IC50 is over 100 µM. Besides, the “Microsomal Cli” value in [2] was 0.846 mL/min/g. For the same molecule, the “Mouse micro Cl” value in data set [2] is 0.85 mL/min/g. In addition, the chromatographic logD in the data set “physchem [3]” was found to be 1.4. Besides, the solubility kinetic in “physchem [4]” (setting [12]) and in “physchem [4]” (read-out: Kin. Sol) was 242 µM (≈ 87.9 µg/mL) each time. The MIC was found to be 12.5 µM (≈ 4.54 µg/mL) with M. tuberculosis (H37Rv) (read-out: H37Rv MIC A); 19 µM (≈ 6.9 µg/mL) in the data set with M. tuberculosis (H37Rv) (read-out: H37Rv MIC B); 12.5 µM (≈ 4.54 µg/mL) in the data set with M. tuberculosis (H37Rv) (setting [13]); 19 µM (≈ 6.9 µg/mL) with M. tuberculosis (H37Rv) (setting [14]); 19 µM (≈ 6.9 µg/mL) in the data set on M. tuberculosis (H37Rv) (setting [15]); 9.4 µM (≈ 3.41 µg/mL) in the data set with M. tuberculosis (H37Rv) (setting [16]).
On to `Cc1nc(-c2ncco2)c(NC(=O)c2c(F)c(F)c(F)c(F)c2F)o1` [Compound 41, Cc1nc(c(o1)NC(=O)c1c(c(c(c(c1F)F)F)F)F)-c1ncco1], for which the “Hepatocyte Cli” value in [1] is on record as 12 mL/min/g. In [1], the “Mouse Heps Cl” value was found to be 12 mL/min/g. Further, the IC50 in the data set on HepG2 cells is over 100 µM. In addition, in data set [2], the “Microsomal Cli” value was determined as 0.5 mL/min/g. Further, the “Mouse micro Cl” value in data set [2] was found to be 0.51 mL/min/g. Besides, in the data set “physchem [3]”, the chromatographic logD is 1.7. In addition, the solubility kinetic in the data set “physchem [4]” (setting [12]) and in the data set “physchem [4]” (read-out: Kin. Sol) was 234 µM (≈ 84.1 µg/mL) in each case. For the same molecule, the MIC with M. tuberculosis (H37Rv) (read-out: H37Rv MIC A) was 0.4 µM (≈ 0.144 µg/mL); with M. tuberculosis (H37Rv) (read-out: H37Rv MIC B), 1.2 µM (≈ 0.431 µg/mL); in the data set with M. tuberculosis (H37Rv) (setting [13]), 0.4 µM (≈ 0.144 µg/mL); in the data set with M. tuberculosis (H37Rv) (setting [14]), 1.2 µM (≈ 0.431 µg/mL); in the data set on M. tuberculosis (H37Rv) (setting [15]), 1.2 µM (≈ 0.431 µg/mL); with M. tuberculosis (H37Rv) (setting [16]), 0.4 µM (≈ 0.144 µg/mL).
For `Cc1nnc(-c2nc(C)oc2NC(=O)c2c(F)c(F)c(F)c(F)c2F)o1` [Compound 42, Cc1nnc(o1)-c1nc(oc1NC(=O)c1c(c(c(c(c1F)F)F)F)F)C], in data set [1], the “Hepatocyte Cli” value is reported as 2.5 mL/min/g. The “Mouse Heps Cl” value in [1] is 2.5 mL/min/g. Also, in the data set with HepG2 cells, the IC50 is over 100 µM. Besides, the “Microsomal Cli” value in [2] is on record as under 0.5 mL/min/g. In addition, in data set [2], the “Mouse micro Cl” value is recorded as under 0.5 mL/min/g. In the data set “physchem [3]”, this molecule returned a chromatographic logD of 1.1. Also, the solubility kinetic in “physchem [4]” (setting [12]) and in the data set “physchem [4]” (read-out: Kin. Sol) was 174 µM (≈ 65.1 µg/mL) throughout. The MIC is 2.3 µM (≈ 0.861 µg/mL) in the data set with M. tuberculosis (H37Rv) (read-out: H37Rv MIC A); 6.3 µM (≈ 2.36 µg/mL) with M. tuberculosis (H37Rv) (read-out: H37Rv MIC B); 2.3 µM (≈ 0.861 µg/mL) in the data set with M. tuberculosis (H37Rv) (setting [13]); 6.3 µM (≈ 2.36 µg/mL) with M. tuberculosis (H37Rv) (setting [14]); 4.7 µM (≈ 1.76 µg/mL) in the data set with M. tuberculosis (H37Rv) (setting [15]); 2.3 µM (≈ 0.861 µg/mL) with M. tuberculosis (H37Rv) (setting [16]). The “loss of MIC potency” value in the data set on M. tuberculosis (H37Rv) (relative to comparator of the series (21 vs thiophenes; 42 vs 24)) is recorded as 10 fold.
The term AUC(0-t) denotes exposure summed from dosing to a finite time, without extrapolation to infinity. Read a high AUC(0-t) as more exposure. As usually defined, the Cmax is the peak of the concentration-time curve. The fraction unbound is the share of the substance not bound to proteins or other matrix. As for `Cc1noc(-c2nc(C)oc2NC(=O)c2c(F)c(F)c(F)c(F)c2F)n1` [Compound 43, Cc1noc(n1)-c1nc(oc1NC(=O)c1c(c(c(c(c1F)F)F)F)F)C], in [1], the “Hepatocyte Cli” value came out at 3.4 mL/min/g. For the same molecule, in [1], the “Mouse Heps Cl” value is 3.4 mL/min/g. Besides, in the data set with M. tuberculosis H37Rv [5], the “reduction in bacterial DNA in lungs compared to the untreated control” value is reported as “no reduction in DNA levels”. Besides, the bioavailability result in data set [6] is “very good”. Further, the clearance entry in data set [6] was “very good”. Further, in data set [6], the half-life entry is given as “moderate”. Besides, the volume of distribution entry in data set [6] is given as “limited”. This molecule also returned an AUC(0-t) in “in vivo” of 167 µg·h/mL. The Cmax in the data set “in vivo” was determined as 30000 ng/mL. Moreover, the IC50 in the data set with HepG2 cells was over 100 µM. In [2], the “Microsomal Cli” value is listed as under 0.5 mL/min/g. Besides, in data set [2], the “Mouse micro Cl” value is listed as under 0.5 mL/min/g. For the same molecule, the “CFU reduction relative to input bacterial counts” value with M. tuberculosis H37Rv [7] (treatment for 3 days) is recorded as about 1 log units; in the data set on M. tuberculosis H37Rv [7] (treatment for 7 days), about 2 log units. Besides, the “increase of Cmax in the animal efficacy study versus oral PK study” value in [8] is recorded as under 3 fold. In “physchem [3]”, this molecule came in with a chromatographic logD of 1.2. In addition, the solubility kinetic in “physchem [4]” (setting [12]) and in the data set “physchem [4]” (read-out: Kin. Sol) was 196 µM (≈ 73.3 µg/mL) throughout. In addition, in “in vitro”, the fraction unbound was 0.03. Moreover, the parental material remaining in data set [9] (after 90 min, glutathione/NADPH) worked out at 57%. Besides, the “concentration required to exert a cidal effect” value in [10] was found to be 10 µM. The MIC amounted to 0.8 µM (≈ 0.299 µg/mL) in the data set on M. tuberculosis (H37Rv) (read-out: H37Rv MIC A); 1.8 µM (≈ 0.674 µg/mL) with M. tuberculosis (H37Rv) (read-out: H37Rv MIC B); 0.8 µM (≈ 0.299 µg/mL) in the data set on M. tuberculosis (H37Rv) (setting [13]); 1.8 µM (≈ 0.674 µg/mL) in the data set on M. tuberculosis (H37Rv) (setting [14]); 1.8 µM (≈ 0.674 µg/mL) with M. tuberculosis (H37Rv) (setting [15]); 0.7 µM (≈ 0.262 µg/mL) in the data set on M. tuberculosis (H37Rv) (setting [16]).
On to `COc1c(N2C[C@@H]3CCCN[C@@H]3C2)c(F)cc2c(=O)c(C(=O)O)cn(C3CC3)c12` [Moxifloxacin, reference compound], for which the “reduction in bacterial DNA in lungs compared to the untreated control” value with M. tuberculosis H37Rv [5] is recorded as about 3 log.
Take `COC(=O)c1c(NC(=O)c2c(F)c(F)c(F)c(F)c2F)sc2c1CCCCC2` [TP2, reference compound]: in data set [1], the “Mouse Heps Cl” value worked out at 43.2 mLmin/g. Moreover, the IC50 in the data set with HepG2 cells came to 13 µM. In addition, the “Mouse micro Cl” value in data set [2] is 15 mLmin/g. Further, the chromatographic logD in the data set “physchem [3]” was 4.6. The same molecule yielded a solubility kinetic in the data set “physchem [4]” (water, kinetic from dmso stock) of 0.2 µM (≈ 0.0839 µg/mL). Also, the “time to complete elimination of parent” value in data set [9] (glutathione conjugation) is at most 6 min. For the same molecule, the “effect on mycolic acid biosynthesis” value in data set [11] is on record as “inhibited mycolic acid biosynthesis”. For the same molecule, the results for the MIC in the data set with M. tuberculosis (H37Rv) (read-out: H37Rv MIC A) and in the data set with M. tuberculosis (H37Rv) (read-out: H37Rv MIC B) were 0.11 µM (≈ 0.0461 µg/mL) and 1.2 µM (≈ 0.503 µg/mL), respectively.
As to `CCOC(=O)c1c(NC(=O)c2c(F)c(F)c(F)c(F)c2F)sc(C(N)=O)c1C` [TP4, reference compound], in [1], the “Mouse Heps Cl” value was over 50 mLmin/g. Further, in the data set with HepG2 cells, the IC50 is 4.3 µM. Further, the “Mouse micro Cl” value in data set [2] worked out at 13 mLmin/g. This molecule displayed a chromatographic logD in “physchem [3]” of 3.4. Moreover, the solubility kinetic in “physchem [4]” (water, kinetic from dmso stock) amounted to 1.1 µM (≈ 0.465 µg/mL). Moreover, the “effect on mycolic acid biosynthesis” value in data set [11] is “inhibited mycolic acid biosynthesis”. For the same molecule, the results for the MIC in the data set on M. tuberculosis (H37Rv) (read-out: H37Rv MIC A) and in the data set with M. tuberculosis (H37Rv) (read-out: H37Rv MIC B) were 0.03 µM (≈ 0.0127 µg/mL) and 0.26 µM (≈ 0.11 µg/mL), respectively.

The values are drawn from publication PMC11915372, “Identification of a Series Containing a Pentafluorophenyl Moiety That Targets Pks13 to Inhibit Growth of Mycobacterium tuberculosis” (ACS Infectious Diseases, 2025).
